“Also recorded” adds a separate entry of the source.
How the values were obtained:
Assay type in all cases: cell-based, mouse
[1] = test system: Treg cells; experiment: Cell viability by Ghost Dye in Treg cells; conditions: dBRD9 in increasing concentrations for 4 days
Source text: (§1) For large scale Treg culture, Tregs were first expanded in Rosa-Cas9/Foxp3^Thy1.1 mice by injecting IL-2:IL-2 antibody immune complex according protocol described in Webster et. al (J Exp Med 206, 751-760, 2009). Spleen and lymph node Treg cells were labeled with PE-conjugated Thy1.1 antibody and isolated by magnetic selection using anti-PE microbeads (Mitenyl #130-048-801). All isolated Treg cells were activated by plate bound anti-CD3 and anti-CD28 antibodies and cultured with X-VIVO® 20 media (LONZA #04-448Q) supplemented by 1× Pen/Strep, 1× Sodium pyruvate, 1× HEPES, 1× GlutaMax™, 55 μM beta-mercaptoethanol in the presence of IL-2 at 500 units/mL. For experiments with Brd9 degradation, Treg cells were treated at day 0 with 2.5 μM dBRD9 (Tocris #6606) and cultured for four days for RNA- and ChIP-seq and 0.16-10 μM treated at day 0 and cultured dBRD9 for four days for Foxp3 MFI, cell viability and cell proliferation assays. Live cells were enriched by Ficoll-Paque® 1.084 (GE Health 17-5446-02) for RNA-seq and ChIP-seq.

[2] = test system: Foxp3-bound sites; experiment: Foxp3 ChIP-seq in Treg cells
Source text: as §1
(§2) Treg cells were collected and cross-linked first in 3 mM disuccinimidyl glutarate (DSG) in 1×PBS for thirty minutes then in 1% formaldehyde for another ten minutes, both at RT, for chromatin binding protein ChIP or in 1% formaldehyde only for histone modification ChIP. After quenching the excess cross-linker with a final concentration of 125 mM glycine, the cells were washed in 1× PBS, pelleted, flash-frozen in liquid nitrogen, and stored at −80° C. Cell pellets were thawed on ice and incubated in lysis solution (50 mM HEPES-KOH pH 8, 140 mM NaCl, 1 mM EDTA, 10% glycerol, 0.5% NP40, 0.25% Triton X-100) for ten minutes. The isolated nuclei were washed with wash solution (10 mM Tris-HCl pH 8, 1 mM EDTA, 0.5 mM EGTA, 200 mM NaCl) and shearing buffer (0.1% SDS, 1 mM EDTA, 10 mM Tris-HCl pH 8) then sheared in a Covaris® E229 sonicator for ten minutes to generate DNA fragments between ˜200-1000 base pairs (bp). After clarification of insoluble material by centrifugation, the chromatin was immunoprecipitated overnight at 4° C. with antibodies against Foxp3, Smarca4, Brd9, Phf10 or H3K27ac. The next day, the antibody bound DNA was incubated with Protein A+G Dynabeads™ (Invitrogen) in ChIP buffer (50 mM HEPES-KOH pH 7.5, 300 mM NaCl, 1 mM EDTA, 1% Triton X-100, 0.1% DOC, 0.1% SDS), washed and treated with Proteinase K and RNase A. Cross-linking was reversed by incubation at 55° C. for two and a half hours. Purified ChIP DNA was used for library generation (NuGen Ovation® Ultralow Library System V2) according to manufacturer's instructions for subsequent sequencing.
Single-end 50 bp or paired-end 42 bp reads were aligned to mouse genome mm10 using STAR alignment tool (V2.5) (Dobin et al., Bioinformatics 29:15-21, 2013). ChIP-Seq peaks were called using findPeaks within HOMER using parameters for histone (-style histone) or transcription factor (-style factor) (homer.ucsd.edu/homer/index.html). Peaks were called when enriched >two-fold over input and >four-fold over local tag counts, with FDR 0.001. For histone ChIP, peaks within a 1000 bp range were stitched together to form regions. Differential ChIP peaks were found by merging peaks from control and experiment groups and called using getDiffExpression.pl with fold change ≥1.5 or ≤−1.5, Poisson p value<0.0001.

[3] = test system: Treg cells; experiment: Cell division by CellTrace dilution in Treg cells; conditions: dBRD9 in increasing concentrations for 4 days
Source text: as §1

[4] = test system: Treg cells; experiment: In vitro Treg suppression assay
Source text: Treg cells were transduced by retrovirus expressing sgRNA targeting gene of interest and cultured in X-VIVO® complete media supplemented with IL-2 (500 U/ml). Four days after transduction, transduced cells were […] a fluorescence-activated cell sorter (FACS). CD45.1+ naive CD4 T cells (CD4^+CD25^−CD44^loCD62^hi) were labeled with CellTrace™ Violet (Thermo Fisher Scientific #C34571) in different ratio in the presence of irradiated T cell depleted spleen cells as antigen-presenting cells (APC). Three days later, Treg suppression function was measured by the percentage of non-dividing cells within the CD45.1^+ effector T cell population. For dBRD9 treatment experiment, dBRD9 was first dissolved in DMSO (10 mM stock) and added into Treg:Teff:APC mixture at 2.5 μM. For Foxp3 overexpression rescue experiment, Treg cells were first transduced with sgNT or sgBrd9 at 24 hour post-activation, and then transduced with MIGR empty vector or MIGR-Foxp3 at 48 hour post-activation. Double transduced Treg cells were FACS sorted on day 4 based on NGFR+ and GFP+ markers and then mixed with CellTrace™ labeled effector T cells in the presence of APC. Treg suppression readout was measured after three days of co-culture.

[5] = test system: Foxp3; experiment: Foxp3 expression (MFI) in Treg cells by flow cytometry
Source text: as §1
HEK293T cells were seeded in 6-wells plate at 0.5 million cells per 2 mL DMEM media supplemented by 10% FBS, 1% Pen/Strep, 1× GlutaMax®, 1× Sodium Pyruvate, 1× HEPES, and 55 μM beta-mercaptoethanol. […] Transduced cells were analyzed for Foxp3 and cytokine expression in eBioscience® Fix/Perm buffer (eBioscience #00-5523-00) using flow cytometry. […]

[6] = test system: H3K27ac; experiment: H3K27ac ChIP-seq in Treg cells; conditions: sgRNA transduced Treg cells
Procedure: as §2, with “The next day, the antibody bound DNA was incubated with Protein A+G Dynabeads™ (Invitrogen) in ChIP buffer (50 mM HEPES-KOH pH 7.5, 300 mM NaCl, 1 mM EDTA, 1% Triton X-100, 0.1% DOC, 0.1% SDS), washed and treated with Proteinase K and RNase A. Cross-linking was reversed by incubation at 55° C. for two and a half hours. Purified ChIP DNA was used for library generation (NuGen Ovation® Ultralow Library System V2) according to manufacturer's instructions for subsequent sequencing.” left out
Single-end 50 bp or paired-end 42 bp reads were aligned to mouse genome mm10 using STAR alignment tool (V2.5) (Dobin et al., Bioinformatics 29:15-21, 2013). […]

[7] = test system: Foxp3 target genes; experiment: RNA-seq and gene set enrichment analysis in Treg cells; conditions: sgRNA transduced Treg cells vs sgNT
Source text: as §1
RNA from 1-3×10^6 cells was extracted and purified with TRIzol™ reagent (Thermo Fisher) according to manufacturer's instructions. RNA-seq libraries were prepared using Illumina® TruSeq® Stranded mRNA kit following manufacturer's instructions with 5 μg of input RNA.
Single-end 50 bp reads were aligned to the mouse genome mm10 using STAR alignment tool (V2.5) (Dobin et al., Bioinformatics 29:15-21, 2013). RNA expression was quantified as raw integer counts using analyzeRepeats.pl in HOMER (Heinz et al., Mol Cell 38:576-589, 2010) using the following parameters: -strand both -count exons -condenseGenes -noadj. To identify differentially expressed genes, getDiffExpression.pl in HOMER was used, which uses the DESeq2R package to calculate the biological variation within replicates. Cut-offs were set at log 2 FC=0.585 and FDR at 0.05 (Benjamin-Hochberg). Principal Component Analysis (PCA) was performed with the mean of transcript per million (TPM) values using Cluster 3.0 with the following filter parameters: at least one observation with absolute value equal or greater than two and gene vector of four. TPM values were log transformed then centered on the mean.
GSEA software (Mootha et al., Nat Genet 34:267-273, 2003; Subramanian et al., PNAS 102:15545-15550, 2005) was used to perform the analyses with the following parameters: number of permutations=1000; enrichment statistic=weighted; and metric for ranking of genes=difference of classes (Input RNA-seq data was log-transformed). For GSEA analysis, input RNA-seq data contained the normalized log-transformed reads of the 1,325 differentially expressed genes (DEGs) in sgFoxp3/sgNT Treg cells. The compiled gene list included GSEA Gene Ontology, Immunological Signature, Curated Gene, and the up and down DEGs in sgBrd9/sgNT Treg cells.
For gene expression analysis in FIG. 42F, Foxp3 ChIP-seq tags were quantified at the union of sites bound by Foxp3 in sgNT and sgBrd9 using the annotatePeaks.pl command in HOMER with size-given and each site was annotated to a gene by mapping to the nearest TSS. Sites were ranked from least to largest Foxp3 ChIP-seq Log2FC in sgBrd9 vs sgNT and divided into quartiles. Gene expression for the genes in the top and bottom quartiles (Brd9-dependent and -independent, respectively) was then plotted using RNA-seq data from Treg cells transduced with sgBrd9, sgSmarcd1, or sgPbrm1 compared to sgNT. […]

## COc1cc(-c2cn(C)c(=O)c3cnccc23)cc(OC)c1CN(C)CC(=O)NCCOCCOCCNc1cccc2c1C(=O)N(C1CCC(=O)NC1=O)C2=O (stereo not shown) [dBRD9]
[1]
  cell viability: without affecting cell viability
[2]; Treg cells, 2.5 μM dBRD9 for 4 days vs DMSO
  Foxp3 binding to chromatin: diminished Foxp3 binding to chromatin at a subset of Foxp3 target sites
[3]
  cell proliferation: without affecting cell viability or proliferation; also recorded: without affecting cell viability and proliferation
[4]; dBRD9 2.5 μM, in vitro
  T effector responses: without impairing T effector responses
[4]; dBRD9 added to Treg:Teff:APC mixture at 2.5 μM
  Treg suppressor function: significantly and specifically compromised Treg suppressor function; also recorded: reduces Treg suppressor activity
[5]; Treg cells, 0.16-10 μM dBRD9 for 4 days vs DMSO
  Foxp3 expression (MFI): significantly decreased Foxp3 expression in Treg cells in a concentration-dependent manner; also recorded: reduces Foxp3 expression

## sgFoxp3: sgRNA targeting Foxp3, TCTACCCACAGGGATCAATG (SEQ ID NO: 1) (expressed or natural sequence)
[2]; sgRNA transduced Treg cells
  Foxp3 binding at CNS2/CNS0: dramatic reduction in Foxp3 binding at CNS2/CNS0
[2]; sgRNA transduced Treg cells, genome-wide
  Foxp3 binding sites at which Foxp3 binding was lost: over 85%
[6]
  H3K27ac at Brd9-dependent Foxp3 sites: reduction in H3K27ac
[7]; RNA-seq
  genes with increased expression: 532 genes
  genes with reduced expression: 793 genes

## sgPbrm1: sgRNA targeting Pbrm1, AAAACACTTGCATAACGATG (SEQ ID NO: 8) (expressed or natural sequence)
[2]; sgRNA transduced Treg cells
  Foxp3 binding at CNS2/CNS0: subtle increase in Foxp3 binding at CNS2/CNS0
[2]; sgRNA transduced Treg cells, FC1.5, Poisson p<0.0001
  Foxp3 binding at a subset of Foxp3 sites (Brd9-dependent sites): did not change

## sgSmarcd1: sgRNA targeting Smarcd1, CAATCCGGCTAAGTCGGACG (SEQ ID NO: 15) (expressed or natural sequence)
[7]
  gene expression of Brd9-dependent vs Brd9-independent Foxp3 target genes: significantly more affected

## sgUsp22: sgRNA targeting Usp22, GCCATCGACCTGATGTACGG (SEQ ID NO: 18) (expressed or natural sequence)
[4]; sgRNA transduced Treg cells vs sgNT
  Treg suppressor activity: compromised Treg suppressor activity
[5]; sgRNA transduced Cas9 Treg cells vs sgNT
  Foxp3 expression (MFI): reduces Foxp3 expression
